The source made the active and inactive calls. The rule behind the calls is not given here.
How the values were obtained:
Mus musculus [1] = assay: Anti-inflammatory activity in ip dosed Swiss Webster mouse assessed as inhibition of carrageenan-induced paw edema pretreated for 60 mins followed by carrageenan administration and measured after 30 mins; format: functional
P2X purinoceptor 7 [2] = target: T1, P2X purinoceptor 7 (Mus musculus, UniProt Q9Z1M0); assay: Antagonist activity at P2X7 receptor in Swiss mouse peritoneal macrophages assessed as inhibition of BzATP-induced current at holding potential of -60 mV preincubated for 5 mins followed by BzATP addition measured after 5 mins by Whole cell patch-clamp analysis
T1 sequence (Q9Z1M0 whole entry): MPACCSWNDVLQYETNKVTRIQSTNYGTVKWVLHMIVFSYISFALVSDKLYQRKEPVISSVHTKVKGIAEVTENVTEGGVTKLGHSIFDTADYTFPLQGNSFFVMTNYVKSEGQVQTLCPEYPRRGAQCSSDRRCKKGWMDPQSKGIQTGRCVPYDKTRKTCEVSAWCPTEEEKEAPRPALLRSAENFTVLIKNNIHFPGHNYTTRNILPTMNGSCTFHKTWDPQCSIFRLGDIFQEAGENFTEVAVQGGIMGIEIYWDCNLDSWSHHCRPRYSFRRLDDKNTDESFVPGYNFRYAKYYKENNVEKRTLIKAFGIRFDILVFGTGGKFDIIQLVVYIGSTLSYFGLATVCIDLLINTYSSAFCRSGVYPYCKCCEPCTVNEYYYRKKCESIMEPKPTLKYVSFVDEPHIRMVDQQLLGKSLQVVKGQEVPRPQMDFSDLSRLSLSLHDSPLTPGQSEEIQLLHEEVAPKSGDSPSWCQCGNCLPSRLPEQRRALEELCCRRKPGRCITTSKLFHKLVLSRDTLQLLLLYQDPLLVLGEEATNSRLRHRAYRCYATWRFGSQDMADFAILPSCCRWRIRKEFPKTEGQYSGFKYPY

P2X purinoceptor 7 [3] = target: T2, P2X purinoceptor 7 (Homo sapiens, UniProt Q99572); assay: Antagonist activity at human P2X7 receptor in PMA-differentiated THP-1 macrophages assessed as inhibition of ATP-induced IL-1beta release preincubated for 30 mins followed by ATP addition measured after 30 mins by ELISA
T2 sequence (Q99572 whole entry): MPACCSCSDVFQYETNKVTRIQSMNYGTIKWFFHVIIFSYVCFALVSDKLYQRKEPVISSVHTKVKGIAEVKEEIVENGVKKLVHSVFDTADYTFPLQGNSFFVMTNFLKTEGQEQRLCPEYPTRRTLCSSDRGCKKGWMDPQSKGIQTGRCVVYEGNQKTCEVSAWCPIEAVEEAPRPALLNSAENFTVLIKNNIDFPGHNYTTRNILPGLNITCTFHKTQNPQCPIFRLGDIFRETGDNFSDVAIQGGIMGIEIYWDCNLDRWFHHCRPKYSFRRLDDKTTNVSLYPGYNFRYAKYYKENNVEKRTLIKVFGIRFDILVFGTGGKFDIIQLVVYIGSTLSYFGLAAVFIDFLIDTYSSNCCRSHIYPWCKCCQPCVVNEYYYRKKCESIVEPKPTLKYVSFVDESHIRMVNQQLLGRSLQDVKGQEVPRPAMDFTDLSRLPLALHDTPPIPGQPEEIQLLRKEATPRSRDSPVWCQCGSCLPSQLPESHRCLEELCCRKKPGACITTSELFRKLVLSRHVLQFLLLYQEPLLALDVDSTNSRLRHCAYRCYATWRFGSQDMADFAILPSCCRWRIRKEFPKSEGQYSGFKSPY

Mus musculus [4] = assay: Anti-inflammatory activity in Swiss mouse assessed as inhibition of LPS-induced pleural accumulation in total leucocytes at 1 to 100 ng/kg, ip pretreated for 1 hr followed by LPS stimulation and measured after 24 hrs by May-Grunwald-Giemsa staining-based Neubauer chamber based optical microscopy; format: functional, organism-based
[5] = target: P2X purinoceptor 7 (Mus musculus) (UniProt Q9Z1M0); assay: Antagonist activity at P2X7 receptor in Swiss mouse peritoneal macrophages assessed as inhibition of ATP-induced propidium iodide uptake at 10 uM after 30 mins by FLIPR assay relative to 1 mM ATP
P2X purinoceptor 7 [6] = target: T2, P2X purinoceptor 7; assay: (§1) Antagonist activity at P2X7 receptor in LPS/IFNc-differentiated human THP-1 cells assessed as inhibition of ATP-induced IL-1beta release preincubated for 30 mins followed by LPS stimulation for 4 hrs using cells treated with ATP for 30 mins by ELISA; format: cell-based
[7] = target: T3, P2X purinoceptor 7 (Homo sapiens) (UniProt Q99572); assay: as §1; format: cell-based
T3 sequence (whole entry): T2 sequence (Q99572 whole entry)

Peritoneal macrophage = assay: Toxicity in Swiss mouse peritoneal macrophages assessed as LDH release at 10 uM after 60 mins relative to 0.05% Triton X-100; format: cell-based; details: 1 h
Mus musculus [8] = assay: Anti-inflammatory activity in Swiss mouse assessed as inhibition of LPS-induced pleural accumulation in eosinophils at 1 to 100 ng/kg, ip pretreated for 1 hr followed by LPS stimulation and measured after 24 hrs by May-Grunwald-Giemsa staining-based Neubauer chamber based optical microscopy; format: functional, organism-based
[9] = Apparent permeability across apical to basolateral side in human Caco2 cells at 100 uM after 60 mins by lucifer yellow dye-based fluorescence assay; format: ADME, cell-based; details: Caco-2
[10] = Intrinsic clearance in mouse liver microsomes assessed per mg protein at 1 uM measured up to 45 mins; format: ADME, microsome; details: read-out: CLH
Mus musculus [11] = assay: Anti-inflammatory activity in Swiss mouse assessed as inhibition of LPS-induced protein extravasation in thoracic cavity at 100 ng/kg, ip pretreated for 1 hr followed by LPS stimulation and measured after 24 hrs; format: functional, organism-based
P2X purinoceptor 7 [12] = target: T2, P2X purinoceptor 7; assay: Antagonist activity at human P2X7 receptor expressed in HEK293 cells assessed as inhibition of ATP-induced ethidium iodide uptake preincubated for 10 mins followed by ATP addition measured after 20 mins by spectrofluorometric analysis; format: cell-based
P2X purinoceptor 7 [13] = target: T1, P2X purinoceptor 7; assay: Antagonist activity at P2X7 receptor in Swiss mouse peritoneal macrophages assessed as inhibition of BzATP-induced ethidium iodide uptake after 30 mins by spectrofluorometric analysis
[14] = Intrinsic clearance in human liver microsomes assessed per mg protein at 1 uM measured up to 45 mins; format: ADME, microsome; details: read-out: CLH
Mus musculus [15] = assay: Anti-inflammatory activity in Swiss mouse assessed as inhibition of LPS-induced nitric oxide production in pleural washes at 1 to 100 ng/kg, ip pretreated for 1 hr followed by LPS stimulation and measured after 24 hrs by Lowry/Griess analysis; format: functional, organism-based
[16] = target: T4, P2X purinoceptor 7 (Mus musculus) (UniProt Q9Z1M0); assay: Antagonist activity at mouse P2X7 receptor expressed in HEK293 cells assessed as inhibition of ATP-induced ethidium iodide uptake at 10 uM preincubated for 10 mins followed by ATP addition measured after 20 mins by FLIPR assay relative to 1 mM ATP; format: cell-based
T4 sequence (whole entry): T1 sequence (Q9Z1M0 whole entry)

Mus musculus [17] = assay: Anti-inflammatory activity in Swiss mouse assessed as inhibition of LPS-induced pleural accumulation in eosiniphils at 100 mg/kg, ip pretreated for 1 hr followed by LPS stimulation and measured after 24 hrs by May-Grunwald-Giemsa staining-based Neubauer chamber based optical microscopy; format: functional, organism-based
Mus musculus [18] = assay: Anti-inflammatory activity in Swiss mouse assessed as inhibition of LPS-induced nitric oxide production in pleural washes at 100 mg/kg, ip pretreated for 1 hr followed by LPS stimulation and measured after 24 hrs by Lowry/Griess analysis; format: functional, organism-based

Q: For CCOCc1cn(-c2ccc(Cl)cc2)nn1, which Activity (Mus musculus [1]) is on record?
A: The Activity was “Dose-dependent effect”.

Q: And the ID50 (Mus musculus [1])?
A: Its ID50 is 0.09435 µg/kg.

Q: And the IC50 (P2X purinoceptor 7 [2])?
A: The IC50 was 41.1 nM.

Q: What about the IC50 (P2X purinoceptor 7 [3]) of the same molecule?
A: Its IC50 is 67 nM.

Q: What about the Activity (Mus musculus [4]) of the same molecule?
A: The Activity was “Active”.

Q: What about the inhibition [5] of the same molecule?
A: The inhibition was 84.7%.

Q: And the IC50 (P2X purinoceptor 7 [6])?
A: Its IC50 is 67.5 nM.

Q: What about the Activity [7] of the same molecule?
A: Its Activity is “Dose-dependent effect”.

Q: And the Activity (Peritoneal macrophage)?
A: The Activity was 8.33%.

Q: And the Activity (Mus musculus [8])?
A: Its Activity is “inactive”.

Q: And the Papp A→B at 1 h, 100 µM [9]?
A: The Papp A→B at 1 h, 100 µM was 77.4 ×10⁻⁶ cm/s.

Q: What about the microsomal CLint at 1 µM [10] of the same molecule?
A: The microsomal CLint at 1 µM was 22.2 µL/min/mg.

Q: What about the Activity (Mus musculus [11]) of the same molecule?
A: The Activity was “Active”.

Q: What about the IC50 (P2X purinoceptor 7 [12]) of the same molecule?
A: The IC50 was 5.3 nM.

Q: And the IC50 (P2X purinoceptor 7 [13])?
A: The IC50 was 59.2 nM.

Q: What about the microsomal CLint at 1 µM [14] of the same molecule?
A: The microsomal CLint at 1 µM was 30.2 µL/min/mg.

Q: And the Activity (Mus musculus [15])?
A: The Activity was “Active”.

Q: And the inhibition [16]?
A: Its inhibition is “Active”.

Q: Which Activity (Mus musculus [17]) does the source give for O=C(O)Cc1ccccc1Nc1c(Cl)cccc1Cl [DICLOFENAC] here?
A: The Activity was “inactive”.

Q: And the Activity (Mus musculus [18])?
A: The Activity was “inactive”.

Reference: ChEMBL document CHEMBL4130413, “1-Aryl-1H- and 2-aryl-2H-1,2,3-triazole derivatives blockade P2X7 receptor in vitro and inflammatory response in vivo” (Eur J Med Chem, 2017)
